# Where a SMILES comes first, the peptide text is derived from it.
logP,solubility,SMILES
2.74,–,Cc1cccc(C)c1C#[N+][O-]
3.33,–,COC(=O)C(c1ccccc1)C(C)C (centres undefined)
0.26,–,Brc1cccc(O[Si]23OCCN(CCO2)CCO3)c1
2.95,–,N#Cc1cc(-c2ccncc2)cnc1N1CCCC1
-1.05,–,CC(=O)Nc1ncc2ncn(COCCOC(C)=O)c2n1
3.95,–,C=CCOc1ccccc1OCC(CNC(C)C)OC(=O)CCC (centres undefined)
–,15.6 mM,O=C(O)CN(CC(=O)O)Cc1cc2c(c(O)c1O)C(=O)c1ccccc1C2=O
2.17,–,Cc1ccc(OCCN(C)C)cc1
1.84,–,Clc1ccc(Cn2cncn2)cc1
6.47,–,N=c1cc2n(-c3ccc(Cl)cc3)c3ccccc3nc-2cc1Nc1ccc(Cl)cc1
-0.7,–,Cn1ccc(=O)c(O)c1
-1.1,–,Cc1c(O)c(=O)ccn1CCO
4.3,–,CC(=O)O[C@@H]1C[C@H]2CC[C@]1(C)C2(C)C
0,–,C=CC(=O)NCCCN(C)C
3.58,–,COc1ccc(N=C=S)cc1
4.44,–,O=[N+]([O-])c1ccc2c(c1)-c1ccc([N+](=O)[O-])c3cccc-2c13
-0.43,–,CN(C)C(N)=S
2.88,–,O=C(NCc1ccc(F)cc1)C(=O)c1c[nH]c2ccccc12
1.21,–,CN(C)C(=O)COC(=O)c1ccccc1O
0.29,–,COC(=O)[C@@H](N)Cc1ccc(O)cc1
4.57,–,C=C(C)C1CC=C(C)CC1 (centres undefined)

logP,solubility,SMILES
0.1,–,Cc1ccc(S(=O)(=O)NC(CCC(=O)NC2CCCCC2)C(=O)O)cc1 (centres undefined)
4,–,C=CCOc1ccccc1OCC(CNC(C)C)OC(=O)CCCC (centres undefined)
-0.91,–,CC1=NS(=O)(=O)c2ncccc2N1
5.44,–,Clc1cc(Cl)c(Oc2ccccc2)cc1Cl
1.88,–,[O-][N+](=Cc1ccccc1)c1ccccc1
-0.25,–,CC1=NS(=O)(=O)c2cccnc2N1
1.98,–,Cc1ccccc1NCc1cnc2nc(N)nc(N)c2c1C
–,41.9 mM,CCCC(C)C=O (centres undefined)
2.72,–,Cc1nc(NCC(C)O)c(C#N)cc1-c1ccccc1 (centres undefined)
3.6,–,CCOC(=O)c1ccc(OCC)cc1
0.62,–,CC(O)CNc1ccccc1C(N)=O (centres undefined)
2.12,–,CCOC(=O)CCn1nc2ccccc2n1
2.43,–,C1CCC(C2CO2)CC1 (centres undefined)
-0.17,–,CCN(O)CC
4.54,–,Clc1ccc(C2OC2c2ccccc2)cc1 (centres undefined)
0.57,–,CCNC(=S)NCC
2.05,–,Cc1ccc(C)c(C)n1
-0.06,–,COC1=CC(=O)C=CC1=O
1.56,–,N=C(N)NN=C1C=CC(=NNC(N)=O)C=C1
1.39,–,COc1ccccc1OCC(O)CO (centres undefined)
1.76,–,CCCCCCOC(=O)C1=C=CC(=O)NC(=O)N1

logP,solubility,SMILES
1.7,–,CCN(CC)CCNC(=O)c1ccc(N)c(Cl)c1
8.71,–,Brc1cc(Br)c(Oc2c(Br)c(Br)c(Br)c(Br)c2Br)cc1Br
2.16,–,O=C(Nc1ccc(Cl)cc1)c1cccc([N+](=O)[O-])c1O
-1.33,–,CC(=O)Oc1ccc(CC(N)C(=O)O)cc1 (centres undefined)
4.32,–,CCCCCCCCC(=O)OC
3.96,–,CCCCCCOC(=O)c1ccc(N)cc1
0.41,–,COC1=C(OC)C(=O)C(OC)=C(OC)C1=O
–,2990 mM,Cc1ncc(CO)c(C=O)c1O
0.96,–,Nc1ccc(O)c([N+](=O)[O-])c1
2.14,–,CC(C)OC(C)(C)C
-1.13,–,CC(=O)N[C@@H](C)C(=O)N[C@H](C(N)=O)C(C)C (Ac-Ala-Val-NH2)
-0.49,–,CC(O)COC(=O)[C@@H](N)Cc1ccc(O)c(O)c1 (some centres undefined)
0.15,–,CCNC(=O)CCC(NS(=O)(=O)c1ccccc1)C(=O)O (centres undefined)
2.54,–,Clc1ccc(Cn2cncn2)cc1Cl
1.6,–,COc1ccc([N+](=O)[O-])cc1NC(C)=O
0.65,–,NC(=O)C=Cc1ccc([N+](=O)[O-])o1
2.32,–,CN(C)c1ccc(N=c2snc3sc(S(N)(=O)=O)nn23)cc1
2.72,–,Cc1nc(NCCCO)c(C#N)cc1-c1ccccc1
4.3,0.00646 mM,CC(=O)c1c(C)c([N+](=O)[O-])c(C(C)(C)C)c([N+](=O)[O-])c1C

SMILES,logP,solubility
CCOC1OC2OC3(C)CCC4C(CO)CCC(C1C)C24OO3 (centres undefined),2.08,–
N=C(N)NN=Cc1ccc(Br)cc1,1.3,–
BrCC1CO1 (centres undefined),0.85,–
COC(=O)c1ccccc1C(=O)OC,1.6,–
COc1ccc(C=NNC(=N)N)cc1,0.29,–
Fc1ccc(C2=CCNCC2)cc1,2.37,–
O=[N+]([O-])c1cc(C(F)F)c(Nc2ncc(C(F)(F)F)cc2Cl)c([N+](=O)[O-])c1,3.52,–
Cc1ccccc1C1=CCN(C)CC1,3.1,–
CC(O)C#N (centres undefined),-0.94,–
CCCC(=NOCC)C1=C(O)CC(CC(C)SCC)CC1=O (centres undefined),4.38,–
Clc1cccc2c1Oc1c(Cl)c(Cl)c(Cl)c(Cl)c1O2,6.5,–
CN(C)P(=O)(N(C)C)N1CCCC1,0.82,–
COP(=S)(OC)Oc1ccccc1,3.03,–
COc1c2ccoc2cc2oc(=O)ccc12,1.93,–
ClC1=C(Cl)C2(Cl)C(CBr)CC1(Cl)C2(Cl)Cl (centres undefined),5.9,–
Nc1ccc2[nH]ncc2c1,0.65,–
S=C=Nc1ccc(Cl)cc1,3.91,–
N#CCC#N,-0.6,–
CC(=O)c1cc2c(cc1C)C(C)(C)C(C)CC2(C)C (centres undefined),5.7,0.00484 mM
CCOC1OC2OC3(C)CCC4C(C)C(OC5OC(C(=O)O)C(O)C(O)C5O)CC(C1C)C24OO3 (centres undefined),0.61,–
Brc1cccc(Oc2ccc(Br)c(Br)c2Br)c1,6.05,–

# From the OPERA property sets (Mansouri et al. 2018)
